Source: patent US11890287B2, “Therapeutic compounds and compositions for treating social disorders and substance use disorders” (Kinoxis Therapeutics Pty Ltd, priority 2015, dated 2024)
Values joined by “and” are separate entries in the source; they are usually repeats but may differ in a detail not shown here. Identical values can stand only once. Like-named read-outs stand apart in the source and are kept apart here.

Assay: 24-hour pharmacokinetic study, intravenous route
Format: in vivo, male Sprague Dawley rats
Settings: 20 mg/kg IV; for Vd: read-out: Vz
Protocol: A single intravenous 20 mg/kg (corresponding to ˜17.1 mg/kg expressed as the free base corrected for purity) bolus dose of SOC-1 test item formulated in Hartman's solution was administered to three adult male Sprague Dawley rats. A total of 10 blood samples were collected from each rat at time points ranging from pre-dose to 24 hours post-dose. The blood samples were subsequently processed to plasma and analysed for plasma concentrations of SOC-1 using a screening LC-MS/MS method (assay range=50-5000 ng/mL). Pharmacokinetic parameters were estimated from the plasma concentration versus time data by non-compartmental methods using Phoenix 64 WinNonlin® software.
Prior to treatments the rats were subject to surgery to cannulate the jugular vein (for dose administration, IV) and femoral artery (for blood sample collection, IA) with exteriorisation of the cannulas per test facility SOPs. Following recovery from surgery the rats were transferred to a Culex system for dose administration and blood sampling (with both lines tended per test facility SOPs).
The intravenous treatments were administered via the jugular cannula with a dosing volume of 4.0 mL/kg on the day following surgery. The treatments were followed by ˜200 μL vehicle to ensure a full dose was delivered to the animals.
Blood samples (˜250 μl) were collected in lithium heparin tubes from the IA cannula at the following time points: pre-dose, 2, 5, 10, 30, 60 minutes, 2, 4, 8 and 24 hours post-dose
Blood samples were kept on ice immediately after collection to minimize degradation and centrifuged as soon as possible at approximately 4000×rcf for 10 min. Pre-dose samples were centrifuged separately prior to dosing. The plasma was then transferred to polypropylene tubes and stored frozen at −80° C.
Plasma concentrations of SOC-1 were determined using a screening LC-MS/MS method with a following liquid/liquid extraction. Briefly, 50 μL aliquots of the test samples and calibration standards were mixed with 1 mL of hexane:dichloromethane (1:1) for 5 minutes following the addition of 10 μl of internal standard, then centrifuged and the organic phase decanted and dried under nitrogen. The samples were then reconstituted with 0.5 mL of 0.1% formic acid in 30% methanol in deionised water and 0.2 mL transferred to a 96 well plate. A 5 μL aliquot of this sample was then analysed using an ABSciex API 4000 MS/MS coupled to a Shimadzu Prominence HPLC. The HPLC gradients included 0.1% formic acid in deionised water (Mobile Phase A) and 0.1% formic acid in methanol (Mobile Phase B). The LC-MS/MS instrument settings are summarised in Appendix 2. The samples were analysed with calibrated samples (50 to 5000 ng/mL) and concentration data determined by back calculation from the standard curve.
Group mean±standard error values for plasma concentration versus time values were determined using Phoenix 64 WinNonlin software. The following pharmacokinetic parameters were also calculated by non-compartmental methods, using Phoenix 64 WinNonlin software: • Rsq—Coefficient of association for the terminal elimination phase (R2). • Lambda—Terminal elimination rate constant associated with the terminal (log-linear) portion of the curve (1/h). • T1/2—Terminal elimination half-life (h) • C0—Initial concentration at time 0 min (ng/mL) determined by back-extrapolating from the first two measured concentration values. • Tmax—Time to maximum plasma concentration following extravascular administration. • Cmax—Maximum plasma concentration following extravascular administration • AUClast—Area under the curve from the time of dosing (Dosing time, time 0 min) to the last measurable concentration (ng·h/mL). • AUCinf—AUC from Dosing time extrapolated to infinity, based on the last observed concentration (obs). (ng·h/mL). • AUC % Extrap—Percentage of AUCinf due to extrapolation from time of last measurable concentration to infinity. • Vz—Volume of distribution (L/kg). • Cl—Total body clearance (L/h/kg). […]

[1] = male, Sprague Dawley, rat, in vivo, Mean, N 3
[2] = male, Sprague Dawley, rat, plasma, iv, 20 mg/kg, individual rats

Cl.Cn1ncc2c1Nc1ccccc1NC2 [SOC-1]
tolerability, morbidity or mortality: tolerated and there were no findings of morbidity or mortality | Plasma SOC-1 (2 minutes post-dose, individual rats #1-#3): 12600 ng/mL and 16500 ng/mL | Plasma SOC-1 (5 minutes post-dose, individual rats #1-#3): 13100 ng/mL and 12200 ng/mL | Plasma SOC-1 (10 minutes post-dose, individual rats #1-#3): 10900 ng/mL and 11700 ng/mL | Plasma SOC-1 (30 minutes post-dose, individual rats #1-#3): 8790 ng/mL and 8120 ng/mL | Plasma SOC-1 (1 hour (60 minutes) post-dose, individual rats #1-#3): 6480 ng/mL and 6310 ng/mL | Plasma SOC-1 (2 hours post-dose, individual rats #1-#3): 3610 ng/mL and 2980 ng/mL | Plasma SOC-1 (4 hours post-dose, individual rats #1-#3): 115 ng/mL and 286 ng/mL and 97.3 ng/mL | Plasma SOC-1 (8 hours post-dose, individual rats #1-#3): BLOQ^a) (below lower limit of quantitation of 50 ng/mL) | Plasma SOC-1 (24 hours post-dose, individual rats #1-#3): BLOQ^a) (below lower limit of quantitation of 50 ng/mL) | AUC % Extrap (Mean, N 3): 0.803% | Lambda (Mean, N 3): 1.28 h⁻¹ | AUC % Extrap (individual rats): 0.559% and 1.45% and 0.398% | AUCinf (individual rats): 18400 ng·h/mL and 17000 ng·h/mL | AUClast (individual rats): 18100 ng·h/mL and 17000 ng·h/mL | C0 (individual rats): 12600 ng/mL and 20100 ng/mL | Cl (individual rats): 15.5 mL/min/kg and 16.7 mL/min/kg | Lambda (individual rats): 1.33 h⁻¹ and 1.07 h⁻¹ and 1.44 h⁻¹ | T1/2 (individual rats): 38.8 min and 29 min | Vz (individual rats): 0.868 L/kg and 0.699 L/kg | AUC(0-inf) [1]: 17000 ng·h/mL | clearance [1]: 16.8 mL/min/kg | half-life [1]: 33 min | C0 (male, Sprague Dawley, rat, in vivo, Mean, N 3, read-out: C0): 18200 ng/mL | Vd [1]: 0.799 L/kg | concentration at 2 min (male, Sprague Dawley, rat, plasma, intravenous, 20 mg/kg, 2 minutes post-dose, individual rats #1-#3, read-out: Plasma SOC-1): 17200 ng/mL | concentration at 5 min (male, Sprague Dawley, rat, plasma, intravenous, 20 mg/kg, 5 minutes post-dose, individual rats #1-#3, read-out: Plasma SOC-1): 11900 ng/mL | concentration at 10 min (male, Sprague Dawley, rat, plasma, intravenous, 20 mg/kg, 10 minutes post-dose, individual rats #1-#3, read-out: Plasma SOC-1): 12800 ng/mL | concentration at 30 min (male, Sprague Dawley, rat, plasma, intravenous, 20 mg/kg, 30 minutes post-dose, individual rats #1-#3, read-out: Plasma SOC-1): 7120 ng/mL | concentration at 1 h (male, Sprague Dawley, rat, plasma, intravenous, 20 mg/kg, 1 hour (60 minutes) post-dose, individual rats #1-#3, read-out: Plasma SOC-1): 5720 ng/mL | concentration at 2 h (male, Sprague Dawley, rat, plasma, intravenous, 20 mg/kg, 2 hours post-dose, individual rats #1-#3, read-out: Plasma SOC-1): 2310 ng/mL | AUC(0-t) (male, Sprague Dawley, rat, plasma, iv, 20 mg/kg, Mean, N 3): 16800 ng·h/mL | AUC(0-inf) [2]: 15500 ng·h/mL | AUC(0-t) [2]: 15400 ng·h/mL | clearance [2]: 18.5 mL/min/kg | half-life [2]: 31.3 min | C0 (male, Sprague Dawley, rat, plasma, iv, 20 mg/kg, individual rats, read-out: C0): 21900 ng/mL | Vd [2]: 0.831 L/kg
